Assay results published in patent US11760733B2, “Small molecule regulators of mitochondrial fusion and methods of use thereof” (Washington University, priority 2017, dated 2023).

How the values were obtained:
[1] = test system: ALS and HD patient-derived fibroblasts; assay: Mitochondrial health in ALS and HD patient-derived fibroblasts; assay type: cell-based, human
Procedure: HD patient-derived fibroblast cell lines (GM04693 from patient and GM05539 from patient) were purchased from Invitrogen. ALS patient-derived fibroblasts (ALS 1: ND29509 from patient having SOD1 mutation; ALS 2: ND30327 having FUS1 mutation) and fibroblasts of control healthy individuals were purchased from Coriell Institute, USA. All fibroblast cultures were maintained in MEM supplemented with 15% (v/v) FBS and 1% (v/v) penicillin/streptomycin at 37° C. in 5% CO2-95% air. Galactose media was used, to increase mitochondria-dependent metabolism oxidative phosphorylation. Human fibroblasts were switched to grow for 48 h in DMEM deprived of glucose and containing galactose (4.5 g/l), 1% FBS, 5 mM sodium pyruvate and 2 mM L-glutamine for the studies.
Cells cultured in 8-well chamber slides were washed with cold PBS, fixed in 4% formaldehyde, and permeabilized with 0.1% Triton X-100. After incubation with 2% normal goat serum (to block nonspecific staining), fixed cells were incubated overnight at 4° C. with TOM20 antibody (1:500) (Santa Cruz, USA). Cells were washed with PBS and incubated for 60 minutes with FITC-conjugated goat anti-rabbit IgG (1:500 dilution). The cells were then washed gently with PBS and counterstained with Hoechst 33342 (1:10,000 dilution, Molecular Probes) to visualize nuclei. The coverslips were mounted with Slow-fade anti-fade reagent (Invitrogen), and images were acquired at 60× using an All-in-One Fluorescence Microscope BZ-X700 (Keyence).
Cells were incubated with tetra-methyl-rhodamine methyl ester (TMRM, 25 nM, Invitrogen) in HBSS (Hank's balanced salt solution) for 30 min at 37° C., per the manufacture's protocol, and the fluorescence was analyzed to measure mitochondrial membrane potential. All data were normalized with respect to the fluorescence intensity of control cells. To determine mitochondrial ROS production, cells were treated with 5 μM MitoSOX™ Red, a mitochondrial superoxide indicator (Invitrogen) for 20 min at 37° C., according to the manufacturer's protocol, and fluorescence was analyzed using SpectraMax M2e (Molecular devices).

[2] = test system: MEFs expressing CMT2A mutant MFN2; assay: Mitochondrial dysmorphology in MEFs expressing MFN2 mutants; assay type: cell-based, mouse; settings: MFN2 T105M in MEFs
Procedure: Fusogenic activity of commercially available small-molecule candidate pharmacophores (TABLE 4), focusing on those having structures that mimicked Ser^378-phosphorylated (class A) and -unphosphorylated (class B) minipeptide amino acid side chains were assessed (see e.g., FIG. 5, TABLE 5). It was reasoned that simultaneous application of class A and B agonists could enhance mitofusin by acting on both MFN2 Ser^378 phosphorylation states. […] Therefore, Cpd A and B functionality were assimilated into a single molecule by creating Cpd A-B chimeras (see e.g., FIG. 11, FIG. 7, TABLE 6). […] On the basis of fluorescence resonance energy transfer (FRET) analysis of MFN2 labeled at the N and C termini, mitofusin agonists promoted an open MFN2 conformation favoring mitochondrial fusion, with a rank order paralleling that for HR2 binding and mitochondrial fusion (see e.g., FIG. 11G; compare to FIG. 11B and FIG. 11C), supporting allosteric activation. […]
Cells were excited with 408 nm (Hoechst), […] (MitoTracker Green and Calcein AM, GFP), or 637 nm (TMRE, MitoTracker Orange, Ethidium homodimer-1, and AF594-Dextran) laser diodes. For mitochondrial elongation studies mitochondrial aspect ratio (long axis/short axis) was calculated using automated edge detection and Image J software. […]

Structure (SMILES): CC1CCCCC1NC(=O)NCCSc1nnc(C2CC2)n1-c1ccccc1 (racemic) [B-A/I, 1-(2-((5-cyclopropyl-4-phenyl-4H-1,2,4-triazol-3-yl)thio)ethyl)-3-(2-methylcyclohexyl)urea]
- mitochondrial structural defects ([1]; ALS and HD fibroblasts): enhances mitochondrial structural defects
- mitochondrial ROS levels ([1]; ALS and HD fibroblasts, MitoSOX): reduces mitochondrial ROS levels
- mitochondrial membrane potential ([1]; ALS and HD fibroblasts, TMRM): improves mitochondrial membrane potential
- effect on fibroblasts from control subjects ([1]; control fibroblasts): no effect
- reversal of mitochondrial dysmorphology [2]: as effective as the combination of Cpds A+B
